Reference: US20100094407A1, “Multiple Bioactive Agent Eluting Stents” (Medtronic Vascular, Inc., priority 2008, published 2010)

Experiment: Elution of fluocinolone and zotarolimus from coated stents, Example 1
Type: physicochemical
Conditions: 60 μg zotarolimus with or without 80 μg fluocinolone; FIG. 4
From the text: In one embodiment, the present disclosure relates to a multiple bioactive agent eluting stent comprising a stent framework, at least two bioactive agents on the stent framework, wherein one or more of the at least two bioactive agents affects the elution rate of one or more of the other of the at least two bioactive agents. The elution rate or profile of the bioactive agents can be determined utilizing the methods showing in Examples 1 and 2 below. For example, total cumulative release of applied bioactive agents can be measured to determine total daily release and also release over a period of time greater than one day. The at least two bioactive agents may be applied together onto a stent framework. There may be one coating which contains all of the bioactive agents. Alternatively, the bioactive agents can be applied to the stent framework in separate coatings. Each coating may contain just one bioactive agent or more than one bioactive agent. The coatings may constitute separate layers. There can also be a base layer and cap layer on the stent framework. Base layer is located closest to the stent framework and the cap layer is a layer which is located furthest away from the stent framework. The layers can be uniform or non-uniform, meaning the layers can be in the form of, for example, dots or stripes or other non-uniform patterns.
12 mm parylene coated stents were used for all builds. […]

CO[C@H]1C[C@@H]2CC[C@@H](C)[C@@](O)(O2)C(=O)C(=O)N2CCCC[C@H]2C(=O)O[C@H]([C@H](C)C[C@@H]2CC[C@H](n3cnnn3)[C@H](OC)C2)CC(=O)[C@H](C)/C=C(\C)[C@@H](O)[C@@H](OC)C(=O)[C@H](C)C[C@H](C)/C=C/C=C/C=C/1C [zotarolimus]
zotarolimus elution rate / total cumulative release, combination with fluocinolone vs zotarolimus alone: increased
